In one data set the target is T1, MMP-14 catalytic domain (Homo sapiens, UniProt P50281).
T1 construct: MMP-14 catalytic domain, and MMP-17 catalytic domain
The data set is described as follows: Thiopeptolide substrate hydrolysis inhibition assay, MMP-14 catalytic domain. It counts as biochemical. Conditions: read-out: MMP-14CD IC50. From the text:
(§1) The assay methods of Biological Examples 1-4 measure the amount by which a test compound reduces the hydrolysis of a thiopeptolide substrate catalyzed by a matrix metalloproteinase enzyme or catalytic domain thereof. It has been shown previously by Ye Qi-Zhuang, Hupe D., and Johnson L. (Current Medicinal Chemistry, 1996;3:407-418) that inhibitor activity against a catalytic domain of an MMP is predictive of the inhibitor activity against the respective full-length MMP enzyme. The methods described below for the inhibition of MMP-13 may also be adapted and used to determine the ability of the compounds of Formula I to inhibit other matrix metalloproteases such as MMP-1, MMP-2, MMP-3, MMP-7, MMP-8, MMP-9, MMP-12, MMP-14, MMP-17, and the like.
(§2) Thiopeptolide substrates show virtually no decomposition or hydrolysis at or below neutral pH in the absence of a matrix metalloproteinase enzyme. A typical thiopeptolide substrate commonly utilized for assays is Ac-Pro-Leu-Gly-thioester-Leu-Leu-Gly-OEt. A 100 μL assay mixture will contain 50 mM of N-2-hydroxyethylpiperazine-N′-2-ethanesulfonic acid buffer (“HEPES,” pH 7.0), 10 mM CaCl2, 100 μM thiopeptolide substrate, and 1 mM 5,5′-dithio-bis-(2-nitro-benzoic acid) (DTNB). […] The change in absorbance at 405 nm is monitored on a Thermo Max microplate reader (molecular Devices, Menlo Park, Calif.) at room temperature (22° C.). The calculation of the amount of hydrolysis of the thiopeptolide substrate is based on E412=13600 M^−1 cm^−1 for the DTNB-derived product 3-carboxy-4-nitrothiophenoxide. Assays are carried out with and without matrix metalloproteinase inhibitor compounds, and the amount of hydrolysis is compared for a determination of inhibitory activity of the test compounds.
(§3) Test compounds were evaluated at various concentrations in order to determine their respective IC50 values, the micromolar concentration of compound required to cause a 50% inhibition of catalytic activity of the respective enzyme.
(§4) Some representative compounds of Formula I have been evaluated for their ability to inhibit MMP-13, MMP-1FL, MMP-3CD, MMP-7FL, MMP-8FL, MMP-9FL, MMP-12CD, MMP-14CD, and/or MMP-17CD, wherein FL means full-length enzyme and CD means a catalytic domain of the full-length enzyme. Test compounds can be evaluated at various concentrations in order to determine their respective IC50 values, the micromolar concentration of compound required to cause a 50% inhibition of the hydrolytic activity of the respective enzyme.
(§5) Certain compounds of Formula I have also been assayed with MMP-1 full-length, MMP-3 catalytic domain, MMP-7 full-length, MMP-8 full-length, MMP-9 full-length, MMP-12 catalytic domain, MMP-14 catalytic domain, and MMP-17 catalytic domain. […] In Biological Table 2, the compound example numbers for the Compound Examples are indicated in the column labelled “Ex. No.”

Another data set deals with T2, MMP-12 catalytic domain (Homo sapiens, UniProt P39900).
T2 construct: MMP-9 full-length, MMP-12 catalytic domain, MMP-14 catalytic domain
T2 sequence (P39900 106-263 limits assumed): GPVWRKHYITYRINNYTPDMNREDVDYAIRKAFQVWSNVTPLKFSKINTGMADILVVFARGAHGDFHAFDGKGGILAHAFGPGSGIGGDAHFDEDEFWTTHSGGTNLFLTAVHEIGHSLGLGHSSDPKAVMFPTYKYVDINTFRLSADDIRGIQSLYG
The data set is described as follows: Thiopeptolide substrate hydrolysis inhibition assay, MMP-12 catalytic domain. It counts as biochemical. Conditions: read-out: MMP-12CD IC50.
From the text: as §1, §2, §3, §4, §5

Another data set addresses MMP-13 catalytic domain (Homo sapiens, UniProt P45452). Description: Thiopeptolide substrate hydrolysis inhibition assay, MMP-13 catalytic domain. It counts as biochemical. From the text:
The methods described below for the inhibition of MMP-13 may also be adapted and used to determine the ability of the compounds of Formula I to inhibit other matrix metalloproteases such as MMP-1, MMP-2, MMP-3, MMP-7, MMP-8, MMP-9, MMP-12, MMP-14, MMP-17, and the like.
Thiopeptolide substrates show virtually no decomposition or hydrolysis at or below neutral pH in the absence of a matrix metalloproteinase enzyme. A typical thiopeptolide substrate commonly utilized for assays is Ac-Pro-Leu-Gly-thioester-Leu-Leu-Gly-OEt. A 100 μL assay mixture will contain 50 mM of N-2-hydroxyethylpiperazine-N′-2-ethanesulfonic acid buffer (“HEPES,” pH 7.0), 10 mM CaCl2, 100 μM thiopeptolide substrate, and 1 mM 5,5′-dithio-bis-(2-nitro-benzoic acid) (DTNB). […] Assays are carried out with and without matrix metalloproteinase inhibitor compounds, and the amount of hydrolysis is compared for a determination of inhibitory activity of the test compounds.

A further data set deals with T3, MMP-3 catalytic domain (Homo sapiens, UniProt P08254).
T3 construct: MMP-1 full-length, MMP-3 catalytic domain, MMP-7 full-length
T3 sequence (P08254 100-272 limits assumed): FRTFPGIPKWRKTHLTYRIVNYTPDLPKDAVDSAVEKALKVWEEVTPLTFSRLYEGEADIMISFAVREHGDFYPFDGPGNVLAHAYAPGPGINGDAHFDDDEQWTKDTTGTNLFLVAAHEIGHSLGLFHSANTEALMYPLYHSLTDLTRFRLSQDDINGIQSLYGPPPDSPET
The data set is described as follows: Thiopeptolide substrate hydrolysis inhibition assay, MMP-3 catalytic domain. Type of data set: biochemical. The settings on record: MES buffer pH 6.0, read-out: MMP-3CD IC50.
From the text: as §1, §2, §3
It should be appreciated that the assay buffer used with MMP-3CD was 50 mM N-morpholinoethane sulfonate (“MES”) at pH 6.0 rather than the HEPES buffer at pH 7.0 described above.
as §4, §5

For another data set, the target named is T4, MMP-17 catalytic domain (Homo sapiens, UniProt Q9ULZ9).
T4 construct: MMP-14 catalytic domain, and MMP-17 catalytic domain
T4 sequence (Q9ULZ9 126-295 limits assumed): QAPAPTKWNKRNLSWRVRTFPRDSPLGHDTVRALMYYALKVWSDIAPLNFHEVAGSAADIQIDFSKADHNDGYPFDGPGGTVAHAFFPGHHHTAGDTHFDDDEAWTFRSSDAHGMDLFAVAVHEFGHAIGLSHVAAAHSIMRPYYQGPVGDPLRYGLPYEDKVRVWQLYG
Description: Thiopeptolide substrate hydrolysis inhibition assay, MMP-17 catalytic domain. It counts as biochemical. Conditions: read-out: MMP-17 CD IC50.
From the text: as §1, §2, §3, §4, §5

Data set [1] in a line: Pharmacokinetics in Sprague-Dawley rats (single IV or oral dose). It counts as in vivo, rat. Conditions: rat, blood, Sprague-Dawley rats, single 5 mg/kg intravenous dose. The source says: For comparison purposes, a reference compound was separately characterized according to its pharmacokinetics properties except AUC in a similar manner. The reference compound (“Reference Compound 1”) was the compound of Example 188 of PCT International Patent Application Publication number WO 02/064572 A1, which is also described in PCT International Patent Application Publication number WO 02/064080 A2 in Table IVb on page 76, 5th species from the top. […] Reference Compound 1 is named 4-[6-(4-methoxy-benzylcarbamoyl)- 1 -methyl-2,4-dioxo- 1,4-dihydro-2H-pyrido[3,4-d]pyrimidin-3-ylmethyl]-benzoic acid, and has the structure drawn below: [drawing 98]

Structures are written as SMILES. Read-outs that look alike come from different tables or passages of the source. A value given as a limit tells only on which side of the number the result lay.

`O=C(O)c1ccc(Cn2cnc3cnc(C(=O)NCc4ccncc4)cc3c2=O)cc1` [Compound Example 5, 4-{4-oxo-6-[(pyridin-4-ylmethyl)-carbamoyl]-4H-pyrido[3,4-d]pyrimidin-3-ylmethyl}-benzoic acid]: the IC50 at MMP-14 catalytic domain was > 100 µM; at MMP-12 catalytic domain, > 100 µM; at MMP-13 catalytic domain (MMP-13 catalytic domain, read-out: MMP-13CD IC50), 0.005 µM; on MMP-3 catalytic domain, 81 µM; on MMP-17 catalytic domain, > 100 µM.
With `COc1cc(CNC(=O)c2cc3c(=O)n(Cc4ccc(C(=O)O)cc4)cnc3cn2)ccn1` [Compound Example 6, 4-{6-[(2-methoxy-pyridin-4-ylmethyl)-carbamoyl]-4-oxo-4H-pyrido [3,4-d]pyrimidin-3-ylmethyl}-benzoic acid], the IC50 on MMP-14 catalytic domain is > 100 µM; at MMP-12 catalytic domain, > 100 µM; on MMP-3 catalytic domain it was 17 µM; on MMP-17 catalytic domain, > 100 µM.
Regarding `CSc1ccc(CNC(=O)c2cc3c(=O)n(Cc4ccc(C(=O)O)cc4)cnc3cn2)cc1` [Compound Example 7, 4-[6-(4-methylsulfanyl-benzylcarbamoyl)-4-oxo-4H-pyrido[3,4-d]pyrimidin-3-ylmethyl]-benzoic acid], the IC50 on MMP-14 catalytic domain was > 30 µM; on MMP-12 catalytic domain it was 14 µM; against MMP-13 catalytic domain it was 0.011 µM; on MMP-3 catalytic domain, > 10 µM; at MMP-17 catalytic domain it was > 100 µM.
The corresponding values for `O=C(O)c1ccc(Cn2cnc3cnc(C(=O)NCc4ccc(F)cc4)cc3c2=O)cc1` [Compound Example 8, 4-[6-(4-fluoro-benzylcarbamoyl)-4-oxo-4H-pyrido[3,4-d]pyrimidin-3-ylmethyl]-benzoic acid] are > 100 µM, > 30 µM, 0.0043 µM, 33 µM and > 100 µM.
The corresponding values for `O=C(O)c1ccc(Cn2cnc3cnc(C(=O)NCc4ccccc4)cc3c2=O)cc1` [Compound Example 9] are > 100 µM, > 30 µM, 0.02 µM, > 30 µM and > 100 µM.
Turning to `COc1ccc(CNC(=O)c2cc3c(=O)n(Cc4ccc(C(=O)O)cc4)c(=O)n(C)c3cn2)cc1` [Reference Compound 1, 4-[6-(4-methoxy-benzylcarbamoyl)-1-methyl-2,4-dioxo-1,4-dihydro-2H-pyrido[3,4-d]pyrimidin-3-ylmethyl]-benzoic acid, reference compound], the clearance in data set [1] (read-out: IV CL) stood at 48.9 mL/min/kg. Moreover, in data set [1] (read-out: IV T1/2 (converted)), the half-life was 36 min.
